Data reported in the kinase profiling compilation of Christmann-Franck et al. (2016).

Experiments:
Experiment in all cases: KINOMEscan competition binding
Conditions in all cases: compound 10.0 µM
[1] = system: ABL1 (human), P00519 [E255K]
[2] = target: BRAF (human) (UniProt P15056)
[3] = target: CDK2 (human) (UniProt P24941)
[4] = target: CDKL1 (human) (UniProt Q00532)
[5] = target: CRK2 (P.falciparum) (UniProt P61075)
[6] = target: CSNK1A1 (human) (UniProt P48729)
[7] = target: DYRK2 (human) (UniProt Q92630)
[8] = system: EGFR (human), P00533 [746-750 del]
[9] = system: EGFR (human), P00533 [P753S; 747-752 del]
[10] = target: EIF2AK1 (human) (UniProt Q9BQI3)
[11] = target: EPHB6 (human) (UniProt O15197)
[12] = target: ERBB3 (human) (UniProt P21860)
[13] = target: ERN1 (human) (UniProt O75460)
ERN1 (human), sequence (O75460 whole entry, looked up): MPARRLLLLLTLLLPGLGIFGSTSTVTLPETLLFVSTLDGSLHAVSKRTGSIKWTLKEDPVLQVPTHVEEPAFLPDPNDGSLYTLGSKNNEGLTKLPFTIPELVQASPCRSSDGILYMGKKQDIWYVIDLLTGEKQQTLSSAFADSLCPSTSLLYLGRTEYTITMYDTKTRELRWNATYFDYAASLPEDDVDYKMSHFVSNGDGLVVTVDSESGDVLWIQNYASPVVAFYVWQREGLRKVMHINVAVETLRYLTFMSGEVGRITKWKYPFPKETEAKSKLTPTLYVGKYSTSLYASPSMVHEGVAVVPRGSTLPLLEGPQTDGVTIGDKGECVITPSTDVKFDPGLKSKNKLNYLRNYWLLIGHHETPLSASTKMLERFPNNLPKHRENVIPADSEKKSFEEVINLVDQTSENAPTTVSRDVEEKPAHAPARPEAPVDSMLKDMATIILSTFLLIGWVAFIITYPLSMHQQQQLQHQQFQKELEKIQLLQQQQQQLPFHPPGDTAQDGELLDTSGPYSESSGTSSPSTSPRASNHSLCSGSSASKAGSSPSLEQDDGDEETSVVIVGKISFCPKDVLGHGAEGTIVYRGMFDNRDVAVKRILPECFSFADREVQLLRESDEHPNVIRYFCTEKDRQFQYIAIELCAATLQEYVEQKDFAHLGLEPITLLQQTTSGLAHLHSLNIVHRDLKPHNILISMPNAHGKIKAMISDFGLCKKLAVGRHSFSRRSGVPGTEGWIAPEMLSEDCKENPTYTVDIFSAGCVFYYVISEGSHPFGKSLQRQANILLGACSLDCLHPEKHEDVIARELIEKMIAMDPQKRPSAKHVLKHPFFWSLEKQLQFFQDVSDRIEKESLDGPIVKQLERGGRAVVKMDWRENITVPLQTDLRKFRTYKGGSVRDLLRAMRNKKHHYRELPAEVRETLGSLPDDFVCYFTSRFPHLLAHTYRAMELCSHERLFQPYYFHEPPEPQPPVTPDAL

[14] = system: FLT3 (human), P36888 [K663Q]
[15] = target: GRK7 (human) (UniProt Q8WTQ7)
[16] = target: HIPK3 (human) (UniProt Q9H422)
[17] = target: HIPK4 (human) (UniProt Q8NE63)
[18] = target: KIT (human) (UniProt P10721)
[19] = system: KIT (human), P10721 [V559D/T670I]
[20] = target: LRRK2 (human) (UniProt Q5S007)
LRRK2 (human), sequence (Q5S007 whole entry, looked up): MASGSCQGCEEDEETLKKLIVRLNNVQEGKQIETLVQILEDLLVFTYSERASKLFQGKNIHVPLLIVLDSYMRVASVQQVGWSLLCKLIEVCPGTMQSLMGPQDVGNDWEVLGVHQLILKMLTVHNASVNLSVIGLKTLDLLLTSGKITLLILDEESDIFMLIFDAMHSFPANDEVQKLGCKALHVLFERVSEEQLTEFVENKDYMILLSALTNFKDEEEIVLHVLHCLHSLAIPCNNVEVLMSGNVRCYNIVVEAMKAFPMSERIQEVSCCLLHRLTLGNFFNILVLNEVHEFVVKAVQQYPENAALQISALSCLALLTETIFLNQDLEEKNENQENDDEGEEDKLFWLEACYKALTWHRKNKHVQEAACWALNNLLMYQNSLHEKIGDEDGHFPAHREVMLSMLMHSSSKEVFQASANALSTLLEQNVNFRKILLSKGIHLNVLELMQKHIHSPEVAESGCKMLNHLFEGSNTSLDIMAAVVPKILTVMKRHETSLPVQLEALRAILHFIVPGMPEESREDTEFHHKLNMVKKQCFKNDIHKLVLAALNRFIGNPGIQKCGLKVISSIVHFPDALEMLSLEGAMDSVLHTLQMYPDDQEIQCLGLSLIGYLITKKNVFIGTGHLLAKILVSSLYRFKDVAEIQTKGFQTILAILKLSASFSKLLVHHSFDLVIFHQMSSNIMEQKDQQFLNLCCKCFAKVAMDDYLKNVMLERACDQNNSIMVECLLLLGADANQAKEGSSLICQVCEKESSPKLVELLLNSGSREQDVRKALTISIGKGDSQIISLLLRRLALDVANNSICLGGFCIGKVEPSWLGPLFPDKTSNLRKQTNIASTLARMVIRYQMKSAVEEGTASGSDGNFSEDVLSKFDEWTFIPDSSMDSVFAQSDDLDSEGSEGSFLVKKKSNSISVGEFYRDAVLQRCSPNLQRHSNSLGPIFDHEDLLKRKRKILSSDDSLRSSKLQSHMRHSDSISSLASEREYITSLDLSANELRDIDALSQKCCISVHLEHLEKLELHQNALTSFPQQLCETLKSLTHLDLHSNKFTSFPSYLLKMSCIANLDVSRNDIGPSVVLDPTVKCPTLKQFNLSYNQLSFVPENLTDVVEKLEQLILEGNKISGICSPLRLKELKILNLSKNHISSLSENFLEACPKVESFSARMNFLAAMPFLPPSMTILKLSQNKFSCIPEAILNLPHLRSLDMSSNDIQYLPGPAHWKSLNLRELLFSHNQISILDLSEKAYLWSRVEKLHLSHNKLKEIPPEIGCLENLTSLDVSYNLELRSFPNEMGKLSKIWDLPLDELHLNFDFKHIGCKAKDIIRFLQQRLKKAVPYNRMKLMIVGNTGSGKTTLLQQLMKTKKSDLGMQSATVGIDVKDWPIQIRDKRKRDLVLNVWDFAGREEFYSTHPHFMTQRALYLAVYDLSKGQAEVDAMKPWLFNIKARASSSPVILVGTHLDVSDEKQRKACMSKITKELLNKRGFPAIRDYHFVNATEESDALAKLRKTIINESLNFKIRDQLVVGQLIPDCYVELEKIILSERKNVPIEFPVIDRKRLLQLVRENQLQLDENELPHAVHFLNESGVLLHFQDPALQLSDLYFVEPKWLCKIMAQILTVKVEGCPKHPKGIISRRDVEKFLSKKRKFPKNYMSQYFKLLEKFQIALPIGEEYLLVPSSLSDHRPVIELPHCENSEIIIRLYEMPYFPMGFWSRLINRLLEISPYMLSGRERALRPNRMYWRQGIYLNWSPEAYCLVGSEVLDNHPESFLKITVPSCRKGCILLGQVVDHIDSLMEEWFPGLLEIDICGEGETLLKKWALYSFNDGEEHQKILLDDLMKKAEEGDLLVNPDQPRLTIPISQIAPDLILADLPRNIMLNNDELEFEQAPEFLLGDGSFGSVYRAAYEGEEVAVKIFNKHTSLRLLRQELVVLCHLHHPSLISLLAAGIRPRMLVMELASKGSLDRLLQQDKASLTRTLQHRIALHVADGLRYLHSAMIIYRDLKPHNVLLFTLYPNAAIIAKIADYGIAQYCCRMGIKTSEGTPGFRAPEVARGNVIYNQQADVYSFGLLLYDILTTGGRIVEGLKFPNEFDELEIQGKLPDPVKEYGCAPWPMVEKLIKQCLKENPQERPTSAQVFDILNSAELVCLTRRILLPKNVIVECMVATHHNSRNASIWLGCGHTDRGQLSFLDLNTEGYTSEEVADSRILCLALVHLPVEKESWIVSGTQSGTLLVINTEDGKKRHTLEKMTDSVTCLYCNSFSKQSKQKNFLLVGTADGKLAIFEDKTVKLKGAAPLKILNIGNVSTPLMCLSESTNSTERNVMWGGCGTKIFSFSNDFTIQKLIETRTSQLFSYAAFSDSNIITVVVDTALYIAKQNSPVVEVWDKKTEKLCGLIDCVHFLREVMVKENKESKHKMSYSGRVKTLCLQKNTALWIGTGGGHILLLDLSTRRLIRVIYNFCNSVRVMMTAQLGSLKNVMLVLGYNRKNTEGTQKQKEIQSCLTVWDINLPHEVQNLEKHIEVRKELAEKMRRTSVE

[21] = target: MAP2K7 (human) (UniProt O14733)
MAP2K7 (human), sequence (O14733 whole entry, looked up): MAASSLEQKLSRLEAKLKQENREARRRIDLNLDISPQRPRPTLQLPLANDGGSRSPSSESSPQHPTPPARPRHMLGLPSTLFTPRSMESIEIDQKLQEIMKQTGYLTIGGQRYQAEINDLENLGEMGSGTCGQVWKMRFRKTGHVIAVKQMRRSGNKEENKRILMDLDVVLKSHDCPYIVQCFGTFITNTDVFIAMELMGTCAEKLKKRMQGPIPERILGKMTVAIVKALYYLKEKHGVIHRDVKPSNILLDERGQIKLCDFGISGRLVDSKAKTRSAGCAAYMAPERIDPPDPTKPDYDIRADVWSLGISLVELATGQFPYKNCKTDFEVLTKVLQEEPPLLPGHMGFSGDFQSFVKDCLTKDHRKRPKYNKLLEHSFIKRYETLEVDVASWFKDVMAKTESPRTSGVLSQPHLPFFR

[22] = target: MAP3K13 (human) (UniProt O43283)
[23] = target: MAP3K15 (human) (UniProt Q6ZN16)
[24] = target: MAP3K2 (human) (UniProt Q9Y2U5)
[25] = target: MAST1 (human) (UniProt Q9Y2H9)
[26] = target: MATK (human) (UniProt P42679)
MATK (human), sequence (P42679 whole entry, looked up): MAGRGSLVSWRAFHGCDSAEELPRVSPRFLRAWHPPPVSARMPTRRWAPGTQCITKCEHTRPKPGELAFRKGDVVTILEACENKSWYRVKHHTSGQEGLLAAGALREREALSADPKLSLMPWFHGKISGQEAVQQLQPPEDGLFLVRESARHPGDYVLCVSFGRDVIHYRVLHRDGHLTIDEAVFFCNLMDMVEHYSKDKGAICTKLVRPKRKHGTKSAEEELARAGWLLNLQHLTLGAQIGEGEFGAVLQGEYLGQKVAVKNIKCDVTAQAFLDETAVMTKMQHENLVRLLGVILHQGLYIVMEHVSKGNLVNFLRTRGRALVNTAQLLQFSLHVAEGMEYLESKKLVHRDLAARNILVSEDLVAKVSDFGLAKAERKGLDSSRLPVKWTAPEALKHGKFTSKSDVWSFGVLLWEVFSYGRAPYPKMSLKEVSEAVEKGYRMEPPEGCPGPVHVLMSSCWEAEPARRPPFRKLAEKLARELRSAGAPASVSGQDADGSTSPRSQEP

[27] = target: MTOR (human) (UniProt P42345)
[28] = target: NEK11 (human) (UniProt Q8NG66)
NEK11 (human), sequence (Q8NG66 whole entry, looked up): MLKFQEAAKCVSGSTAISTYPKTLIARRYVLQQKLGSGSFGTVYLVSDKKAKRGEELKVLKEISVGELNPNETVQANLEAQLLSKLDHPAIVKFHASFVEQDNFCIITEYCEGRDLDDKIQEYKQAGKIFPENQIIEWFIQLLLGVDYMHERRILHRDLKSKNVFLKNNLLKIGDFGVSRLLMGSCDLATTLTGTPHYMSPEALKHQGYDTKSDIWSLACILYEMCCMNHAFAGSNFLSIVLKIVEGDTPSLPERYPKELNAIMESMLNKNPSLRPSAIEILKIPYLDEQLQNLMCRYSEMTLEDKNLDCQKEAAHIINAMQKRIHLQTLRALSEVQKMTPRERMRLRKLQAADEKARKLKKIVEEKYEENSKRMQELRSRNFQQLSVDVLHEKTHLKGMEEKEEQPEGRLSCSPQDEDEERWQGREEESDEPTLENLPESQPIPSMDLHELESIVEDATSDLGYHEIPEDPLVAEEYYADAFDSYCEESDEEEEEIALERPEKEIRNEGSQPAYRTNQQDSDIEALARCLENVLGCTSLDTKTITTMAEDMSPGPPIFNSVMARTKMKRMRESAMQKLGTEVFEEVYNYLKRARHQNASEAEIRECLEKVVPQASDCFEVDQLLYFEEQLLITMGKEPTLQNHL

[29] = target: NEK3 (human) (UniProt P51956)
[30] = target: OXSR1 (human) (UniProt O95747)
[31] = target: PI4KB (human) (UniProt Q9UBF8)
[32] = system: PIK3CA (human), P42336 [E545K]
[33] = system: PIK3CA (human), P42336 [I800L]
[34] = target: PIK3CG (human) (UniProt P48736)
[35] = target: ROCK1 (human) (UniProt Q13464)
[36] = target: RPS6KB1 (human) (UniProt P23443)
[37] = target: SBK1 (human) (UniProt Q52WX2)
[38] = target: SGK3 (human) (UniProt Q96BR1)
[39] = target: TBK1 (human) (UniProt Q9UHD2)
[40] = target: TIE1 (human) (UniProt P35590)

Row | SMILES | kinase still bound, per cent of control [1] [%] | kinase still bound, per cent of control [2] [%] | kinase still bound, per cent of control [3] [%] | kinase still bound, per cent of control [4] [%] | kinase still bound, per cent of control [5] [%] | kinase still bound, per cent of control [6] [%] | kinase still bound, per cent of control [7] [%] | kinase still bound, per cent of control [8] [%] | kinase still bound, per cent of control [9] [%] | kinase still bound, per cent of control [10] [%] | kinase still bound, per cent of control [11] [%] | kinase still bound, per cent of control [12] [%] | kinase still bound, per cent of control [13] [%] | kinase still bound, per cent of control [14] [%] | kinase still bound, per cent of control [15] [%] | kinase still bound, per cent of control [16] [%] | kinase still bound, per cent of control [17] [%] | kinase still bound, per cent of control [18] [%] | kinase still bound, per cent of control [19] [%] | kinase still bound, per cent of control [20] [%] | other results
1 | COc1cc(N2CCN(C)CC2)ccc1Nc1nc(N)c(C(=O)c2c(Cl)cccc2Cl)s1 | 90 | 94 | 79 | 88 | 87 | 84 | 89 | 85 | 89 | 100 | 63 | 50 | 99 | 100 | 100 | 99 | 24 | 100 | 100 | 81 | kinase still bound, per cent of control [21]: 100%; kinase still bound, per cent of control [22]: 100%; kinase still bound, per cent of control [23]: 51%; kinase still bound, per cent of control [24]: 79%; kinase still bound, per cent of control [25]: 24%; kinase still bound, per cent of control [26]: 61%; kinase still bound, per cent of control [27]: 100%; kinase still bound, per cent of control [28]: 65%; kinase still bound, per cent of control [29]: 89%; kinase still bound, per cent of control [30]: 100%; kinase still bound, per cent of control [31]: 100%; kinase still bound, per cent of control [32]: 100%; kinase still bound, per cent of control [33]: 96%; kinase still bound, per cent of control [34]: 86%; kinase still bound, per cent of control [35]: 79%; kinase still bound, per cent of control [36]: 89%; kinase still bound, per cent of control [37]: 80%; kinase still bound, per cent of control [38]: 100%; kinase still bound, per cent of control [39]: 100%; kinase still bound, per cent of control [40]: 100%
2 | O=C1Nc2ccc(I)cc2/C1=C/c1cc(Br)c(O)c(Br)c1 | 54 | 0.9 | 97 | 84 | 90 | 81 | 54 | 36 | 50 | 57 | 24 | 87 | 57 | 11 | 73 | 8 | 21 | 3.4 | 23 | 11 | kinase still bound, per cent of control [21]: 98%; kinase still bound, per cent of control [22]: 100%; kinase still bound, per cent of control [23]: 80%; kinase still bound, per cent of control [24]: 100%; kinase still bound, per cent of control [25]: 100%; kinase still bound, per cent of control [26]: 100%; kinase still bound, per cent of control [27]: 95%; kinase still bound, per cent of control [28]: 100%; kinase still bound, per cent of control [29]: 95%; kinase still bound, per cent of control [30]: 100%; kinase still bound, per cent of control [31]: 0.5%; kinase still bound, per cent of control [32]: 100%; kinase still bound, per cent of control [33]: 61%; kinase still bound, per cent of control [34]: 71%; kinase still bound, per cent of control [35]: 80%; kinase still bound, per cent of control [36]: 81%; kinase still bound, per cent of control [37]: 85%; kinase still bound, per cent of control [38]: 73%; kinase still bound, per cent of control [39]: 95%; kinase still bound, per cent of control [40]: 86%
